In patent publication EP0535241A1, “NOVEL LEUCINE AMINOPEPTIDASE” (SUNTORY LIMITED, priority 1991, dated 1992):

Biological target: T1, leucine aminopeptidase of human placenta origin (PLAP), purified from human retroplacental sera, containing SEQ ID NOs: 1, 2, 3 and 4 (Homo sapiens, UniProt Q9UIQ6)
T1 construct: PLAP was purified by fractionating 900 ml of retroplacental sera by ammonium sulfate fractionation; from tissue; host or cells: human retroplacental sera
Experiment: PLAP enzyme assay with L-leucyl-P-nitroanilide as substrate (Lineweaver-Burk plot)
Type: biochemical
Experimental: An assay of PLAP was carried out according to a method of Kurauchi et al. (Kurauchi, O. et al. Enzyme, 35, p197-205, 1986) using L-leucyl-P-nitroanilide as a substrate. Namely, a substrate adjusted to 1.6 mM of a final concentration was added to a 20 mM Tris-HCl buffer (pH 7.2) (1.0 ml) in the presence of a 20 mM L-methionine, and the mixture was incubated at 37°C for 10 minutes. After finishing the reaction, 3.0 ml of a 1M acetate buffer (pH 4.2) was added to terminate the reaction, and the amount of released P-nitroanilide was measured by absorption of 405 nm. One unit of the enzyme is defined as an activity of the enzyme that releases 1 µ mole of the P-nitroanilide for one minute.

[1] = purified PLAP, calculated according to Lineweaver-Burk plot, 20 mM Tris-HCl buffer (pH 7.2), 37°C

T1 sequence (Q9UIQ6 155-1025 limits assumed): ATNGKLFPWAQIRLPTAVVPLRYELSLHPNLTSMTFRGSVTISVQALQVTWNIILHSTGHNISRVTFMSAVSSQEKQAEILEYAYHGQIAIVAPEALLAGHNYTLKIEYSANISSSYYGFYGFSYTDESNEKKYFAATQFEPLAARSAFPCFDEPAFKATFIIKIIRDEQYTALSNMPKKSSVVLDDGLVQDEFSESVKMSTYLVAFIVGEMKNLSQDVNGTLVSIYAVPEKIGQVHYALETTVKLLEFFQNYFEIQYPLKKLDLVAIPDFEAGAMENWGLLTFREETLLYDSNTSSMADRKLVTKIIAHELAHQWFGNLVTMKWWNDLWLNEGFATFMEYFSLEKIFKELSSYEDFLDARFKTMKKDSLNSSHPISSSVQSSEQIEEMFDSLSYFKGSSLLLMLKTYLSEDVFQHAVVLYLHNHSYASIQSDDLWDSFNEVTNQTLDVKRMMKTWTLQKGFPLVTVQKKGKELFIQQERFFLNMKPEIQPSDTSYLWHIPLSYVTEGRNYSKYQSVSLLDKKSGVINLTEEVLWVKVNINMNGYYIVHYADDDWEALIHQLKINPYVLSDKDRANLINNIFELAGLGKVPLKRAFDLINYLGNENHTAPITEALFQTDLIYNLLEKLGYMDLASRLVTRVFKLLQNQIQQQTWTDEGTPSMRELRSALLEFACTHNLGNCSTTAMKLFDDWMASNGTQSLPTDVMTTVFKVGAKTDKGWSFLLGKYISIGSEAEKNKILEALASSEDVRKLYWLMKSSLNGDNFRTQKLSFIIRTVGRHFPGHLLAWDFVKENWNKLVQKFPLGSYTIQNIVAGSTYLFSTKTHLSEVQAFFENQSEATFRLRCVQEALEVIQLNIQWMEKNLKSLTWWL

Row | SMILES | Km value for degradation of L-Leucyl-P-nitroanilide [1] [mM] | Vmax for degradation of L-Leucyl-P-nitroanilide [1] [µmol/min/g] | inhibition of L-leucyl-P-nitroanilide degrading activity by L-methionine (assay carried out in the presence of 20 mM L-methionine, substrate 1.6 mM)
1 | CC(C)C[C@H](N)C(=O)Nc1ccc([N+](=O)[O-])cc1 [L-Leucyl-P-nitroanilide] | 4.17 | 108 | –
2 | CSCC[C@H](N)C(=O)O [L-methionine] | – | – | not inhibited
